In US20140357512A1, “HISTONE DEACETYLASE (HDAC) BIOMARKERS IN MULTIPLE MYELOMA” (priority 2013, published 2014):

Tested on: human myeloma cell line MM.1S
Test: SILAC acetylated-lysine peptide profiling, HDAC inhibitor vs DMSO (light/heavy ratio)
Format: cell-based
Text: An embodiment of the invention comprises utilizing the SILAC method in order to quantitate changes in protein expression between two or more populations of cells. The SILAC method is a technique based on mass spectrometry that detects differences in protein abundance among samples using non-radioactive isotopic labeling. The SILAC method is known in the art, and described in detail in Ong et al., “Stable Isotope Labeling by Amino Acids in Cell Culture, SILAC, as a Simple and Accurate Approach to Expression Proteomics”, Molecular & Cellular Proteomics, vol. 1, pp. 376-386 (2002), which is incorporated herein by reference in its entirety.
Briefly, the SILAC method involves growing two populations of cells in cell culture. The first population of cells is grown in growth media containing normal amino acids (“normal media”). The second population of cells is grown in media lacking a standard essential amino acid (such as lysine), but is then supplemented with a non-radioactive, isotopically labeled form of that essential amino acid (such as lysine labeled with ^13C atoms, rather than normal ^12C atoms), which is called “heavy media”. When the two populations of cells are each growing in the medium, they incorporate the amino acids into all of their proteins. The growth of cells maintained in the heavy media is no different from that in normal media. All peptides containing the heavy amino acids are heavier than their normal counterparts. The cells from each of the two populations of cells are lysed. The lysates from each of the two cell populations are then combined. The combined cell lysates are then analyzed by mass spectrometry. Pairs of chemically identical peptides of different stable isotope composition can be differentiated in a mass spectrometer due to their difference in mass. The ratio of peak intensities in the mass spectrum for such peptide pairs reflects the abundance ratio for the two proteins.
This example describes SILAC studies that were performed to compare the effects of three different HDAC inhibitors (Compound A, Compound B, and tubastatin A) to a control on a human multiple myeloma cell line. The HDAC inhibitors were also compared amongst themselves to determine differences in their effects.
A human myeloma cell line MM.1S was grown using either ^12C (light) or ^13C (heavy) lysine containing culture medium. The “heavy” cells were treated with DMSO as the control, and the “light” cells were treated with a single HDAC inhibitor at 37° C. for 6 hours. The heavy and light cells were lysed, and the lysates were mixed in 1:1 ratio and digested with the protease trypsin. The acetylated lysine containing peptides (due to the action of the HDAC inhibitor) in the digested peptide pool were captured by a non-specific anti-acetylated lysine antibody cocktail (the antibodies identify both light and heavy acetylated peptides), and subjected to mass spectrometry analysis in order to identify thousands of individual peptides.
Thousands of peptides were identified in pairs (^12C and ^13C) due to their known mass differences. The amino acid sequence and quantitative ratio (Light/Heavy) of a given peptide in two differentially treated cell lysates were then determined and annotated with their possible protein (gene) sources.
As stated above, three HDAC inhibitors (Compound A, Compound B, and Tubastatin A) were used. Thus, the SILAC method was performed three times, with a different HDAC inhibitor compared to a control each time. Accordingly, there are three pairs of quantitative data in the table below, i.e., Compound A:DMSO, Compound B:DMSO, and Tubastatin A:DMSO. A cut-off of 1.30 fold of change (increase or decrease) was then used to determine “changed” or “+” in the table, and any peptides with a fold of change less than 1.3 fold were determined to be “unchanged” or “0” in the table. Those peptides that were not identified were marked as “NA” in the table. […]

Compound: O=C(CCCCCCNC(=O)c1cnc(N(c2ccccc2)c2ccccc2)nc1)NO [Compound A, 2-(diphenylamino)-N-(7-(hydroxyamino)-7-oxoheptyl)pyrimidine-5-carboxamide]
- L/H ratio of acetylated peptide TVGQLYK(ac)EQLAK (SEQ ID NO: 731, Isoform 1 of Myosin-9 [651], MYH9): 0.75 log 2
- L/H ratio of acetylated peptide AAETCQEPK(ac)EFR (SEQ ID NO: 732, NADH dehydrogenase [ubiquinone] 1 alpha subcomplex assembly factor 4 [91], NDUFAF4): 0.75 log 2
- L/H ratio of acetylated peptide VVLIGDSGVGK(ac)SNLLSR (SEQ ID NO: 733, Ras-related protein Rab-11B [24], RAB11B): 0.76 log 2
- L/H ratio of acetylated peptide SGK(ac)YVLGYK (SEQ ID NO: 734, 60S ribosomal protein L30 [26], RPL30): 0.76 log 2
- L/H ratio of acetylated peptide ILMEHIHK(ac)LK (SEQ ID NO: 735, 60S ribosomal protein L19 [144], RPL19): 0.76 log 2
- L/H ratio of acetylated peptide EK(ac)VFYSLMR (SEQ ID NO: 736, Epoxide hydrolase 1 [288], EPHX1): 0.78 log 2
- L/H ratio of acetylated peptide K(ac)FDQLLAEEK (SEQ ID NO: 737, Isoform 1 of Myosin-9 [1445], MYH9): 0.78 log 2
- L/H ratio of acetylated peptide FVEFDMK(ac)PVCK (SEQ ID NO: 738, Isoform 2 of LIM and senescent cell antigen-like-containing domain protein 2 [326], LIMS2): 0.79 log 2
- L/H ratio of acetylated peptide K(ac)GFITVDGR (SEQ ID NO: 739, Laminin subunit alpha-1 [2808], LAMA1): 0.79 log 2
- L/H ratio of acetylated peptide KAEAQIAAK(ac)NLDK (SEQ ID NO: 740, Aspartate aminotransferase mitochondrial [90], GOT2): 0.80 log 2
- L/H ratio of acetylated peptide DK(ac)QFVAK (SEQ ID NO: 741, Staphylococcal nuclease domain-containing protein 1 [341], SND1): 0.80 log 2
- L/H ratio of acetylated peptide AGACNTVIK(ac)QLMR (SEQ ID NO: 742, Isoform SERCA3B of Sarcoplasmic/endoplasmic reticulum calcium ATPase 3 [476], ATP2A3): 0.82 log 2
- L/H ratio of acetylated peptide KQQAK(ac)FDECVLDK (SEQ ID NO: 743, NADH dehydrogenase [ubiquinone] 1 alpha subcomplex subunit 8 [106], NDUFA8): 0.82 log 2
- L/H ratio of acetylated peptide ALCTGEK(ac)GFGYK (SEQ ID NO: 744, Peptidyl-prolyl cis-trans isomerase F mitochondrial [86], PPIF): 0.82 log 2
- L/H ratio of acetylated peptide IYK(ac)SDGIK (SEQ ID NO: 745, ADP/ATP translocase 2 [166], SLC25A5): 0.83 log 2
- L/H ratio of acetylated peptide DEGGK(ac)AFFK (SEQ ID NO: 746, ADP/ATP translocase 2 [268], SLC25A5): 0.84 log 2
- L/H ratio of acetylated peptide SYLK(ac)EFR (SEQ ID NO: 747, Isoform 1 of Trans-23-enoyl-CoA reductase [291], TECR): 0.85 log 2
- L/H ratio of acetylated peptide VPK(ac)TAENFR (SEQ ID NO: 748, Peptidyl-prolyl cis-trans isomerase D [43], PPID): 0.85 log 2
- L/H ratio of acetylated peptide VNCLDK(ac)FWHK (SEQ ID NO: 749, Isoform 1 of LIM and SH3 domain protein 1 [23], LASP1): 0.85 log 2
- L/H ratio of acetylated peptide KGEDFVK(ac)TLK (SEQ ID NO: 750, Malate dehydrogenase mitochondrial [335], MDH2): 0.85 log 2
- L/H ratio of acetylated peptide EAEFTK(ac)SIAK (SEQ ID NO: 751, Signal peptidase complex subunit 2 [191], LOC653566, SPCS2): 0.86 log 2
- L/H ratio of acetylated peptide SGYYK(ac)VLGK (SEQ ID NO: 752, 60S ribosomal protein L27a [110], RPL27A): 0.86 log 2
- L/H ratio of acetylated peptide YVLGYK(ac)QTLK (SEQ ID NO: 753, 60S ribosomal protein L30 [32], RPL30): 0.87 log 2
- L/H ratio of acetylated peptide FEDK(ac)TVAYTEQK (SEQ ID NO: 754, Protein disulfide-isomerase A3 [218], PDIA3): 0.88 log 2
- L/H ratio of acetylated peptide IVNALK(ac)SQVDK (SEQ ID NO: 755, Ornithine aminotransferase mitochondrial [102], OAT): 0.88 log 2
- L/H ratio of acetylated peptide ILEFFGLK(ac)K (SEQ ID NO: 756, Protein disulfide-isomerase [308], P4HB): 0.89 log 2
- L/H ratio of acetylated peptide LCGQDLNK(ac)TSR (SEQ ID NO: 757, Isoform 1 of UDP-N-acetylglucosamine--dolichyl-phosphate N-acetylglucosaminephospho-, DPAGT1): 0.89 log 2
- L/H ratio of acetylated peptide (SFDK(ac)NLYR (SEQ ID NO: 477), DNA replication licensing factor MCM4 [220], MCM4): −0.55 log 2
- L/H ratio of acetylated peptide LFAK(ac)[…] (SEQ ID NO: 98) (SFPQ [319], log 2 scale, drug vs DMSO): 0.00
- L/H ratio of acetylated peptide […](ac)GK (SEQ ID NO: 99) (SFPQ [330], log 2 scale, drug vs DMSO): 0.00
- L/H ratio of acetylated peptide GFGFIK(ac)LESR (SEQ ID NO: 97) (SFPQ [338], log 2 scale, drug vs DMSO): 0.00
- L/H ratio of acetylated peptide […](ac)MILIGR (SEQ ID NO: 100) (SFXN1 [86], log 2 scale, drug vs DMSO): 0.00
- L/H ratio of acetylated peptide […](ac)DK (SEQ ID NO: 103) (SLC25A5 [92], log 2 scale, drug vs DMSO): 0.00
- L/H ratio of acetylated peptide AFFK(ac)GAWSNVLR (SEQ ID NO: 102) (SLC25A5 [272], log 2 scale, drug vs DMSO): 0.00
- L/H ratio of acetylated peptide […](ac)ANVAK (SEQ ID NO: 101) (SLC25A10 [173], log 2 scale, drug vs DMSO): 0.00
- L/H ratio of acetylated peptide TWEK(ac)LLLAAR (SEQ ID NO: 104) (SNORA6, RPSAP15, SNORA62, RPSA [57], log 2 scale, drug vs DMSO): 0.00
